# Publication PMC10877416 (Translational Oncology, 2024)
# Where two headings read alike, the source gives them in different places. Ends that are not written are not given here. Peptide text beside a SMILES is read from it.
# B1: PD-L1(111-127), biotin-(Gly)5 form (peptide)
# chain: VYRCMISYGGADYKRIT
# HELM: PEPTIDE1{[O=C1N[C@H]2[C@H](CS[C@H]2CCCCC(=O)[*:2])N1].G.G.G.G.G.V.Y.R.[Abu].[Nle].I.S.Y.G.G.A.D.Y.K.R.I.T.[am]}$$$$V2.0
# SMILES: CCCC[C@H](NC(=O)[C@H](CC)NC(=O)[C@H](CCCNC(=N)N)NC(=O)[C@H](Cc1ccc(O)cc1)NC(=O)[C@@H](NC(=O)CNC(=O)CNC(=O)CNC(=O)CNC(=O)CNC(=O)CCCC[C@@H]1SC[C@@H]2NC(=O)N[C@@H]21)C(C)C)C(=O)N[C@H](C(=O)N[C@@H](CO)C(=O)N[C@@H](Cc1ccc(O)cc1)C(=O)NCC(=O)NCC(=O)N[C@@H](C)C(=O)N[C@@H](CC(=O)O)C(=O)N[C@@H](Cc1ccc(O)cc1)C(=O)N[C@@H](CCCCN)C(=O)N[C@@H](CCCNC(=N)N)C(=O)N[C@H](C(=O)N[C@H](C(N)=O)[C@@H](C)O)[C@@H](C)CC)[C@@H](C)CC
# B2: PD-L1(110-128)(V111C-T127C), biotin-(Gly)5 form (peptide)
# chain: GCYRCMISYGGADYKRICV
# HELM: PEPTIDE1{[O=C1N[C@H]2[C@H](CS[C@H]2CCCCC(=O)[*:2])N1].G.G.G.G.G.G.C.Y.R.[Abu].[Nle].I.S.Y.G.G.A.D.Y.K.R.I.C.V.[am]}$PEPTIDE1,PEPTIDE1,8:R3-24:R3$$$V2.0
# SMILES: CCCC[C@@H]1NC(=O)[C@H](CC)NC(=O)[C@H](CCCNC(=N)N)NC(=O)[C@H](Cc2ccc(O)cc2)NC(=O)[C@@H](NC(=O)CNC(=O)CNC(=O)CNC(=O)CNC(=O)CNC(=O)CNC(=O)CCCC[C@@H]2SC[C@@H]3NC(=O)N[C@@H]32)CSSC[C@@H](C(=O)N[C@H](C(N)=O)C(C)C)NC(=O)[C@H]([C@@H](C)CC)NC(=O)[C@H](CCCNC(=N)N)NC(=O)[C@H](CCCCN)NC(=O)[C@H](Cc2ccc(O)cc2)NC(=O)[C@H](CC(=O)O)NC(=O)[C@H](C)NC(=O)CNC(=O)CNC(=O)[C@H](Cc2ccc(O)cc2)NC(=O)[C@H](CO)NC(=O)[C@H]([C@@H](C)CC)NC1=O
# B3: PD-L1(113-126), biotin-(Gly)5 form (peptide)
# chain: RCMISYGGADYKRI
# HELM: PEPTIDE1{[O=C1N[C@H]2[C@H](CS[C@H]2CCCCC(=O)[*:2])N1].G.G.G.G.G.R.[Abu].[Nle].I.S.Y.G.G.A.D.Y.K.R.I.[am]}$$$$V2.0
# SMILES: CCCC[C@H](NC(=O)[C@H](CC)NC(=O)[C@H](CCCNC(=N)N)NC(=O)CNC(=O)CNC(=O)CNC(=O)CNC(=O)CNC(=O)CCCC[C@@H]1SC[C@@H]2NC(=O)N[C@@H]21)C(=O)N[C@H](C(=O)N[C@@H](CO)C(=O)N[C@@H](Cc1ccc(O)cc1)C(=O)NCC(=O)NCC(=O)N[C@@H](C)C(=O)N[C@@H](CC(=O)O)C(=O)N[C@@H](Cc1ccc(O)cc1)C(=O)N[C@@H](CCCCN)C(=O)N[C@@H](CCCNC(=N)N)C(=O)N[C@H](C(N)=O)[C@@H](C)CC)[C@@H](C)CC
# Key:
# PD-L1 protein = settings: Table S6, supplement reference list, read-out: Affinity (KD), cited from earlier work
# Description: Supplement mmc1.docx, table 8: Table S6. […] D - amino acids are marked with a lowercase letter. NB - no binding; ND - no data; JD - no name given by the authors. | column: Affinity (KD) [µM]
# Solubility in water = assay type: physicochemical
# Description: To increase solubility, its sequence was elongated at the N- and C-terminals by adding hydrophilic amino acids from the protein sequence. […] These modifications were introduced to prevent the oxidation of methionine and cysteine.
# PD-1 protein = settings: Table S5, supplement reference list, read-out: Affinity (KD), cited from earlier work
# [1] = biological target: programmed cell death 1 (PD-1) (human, UniProt Q15116 25-170); assay: SPR; Biacore T200; biotin-(Gly)5-peptides immobilised on an SA sensor chip (~800 RU, L1 ~500 RU); PD-1 injected at 0.31-10 µM (two-fold dilutions); PBS-P running buffer, 30 µl/min, 25°C; 1:1 binding model, at least three titrations; settings: both partners purified
# Chain of programmed cell death 1 (PD-1) (Q15116 25-170): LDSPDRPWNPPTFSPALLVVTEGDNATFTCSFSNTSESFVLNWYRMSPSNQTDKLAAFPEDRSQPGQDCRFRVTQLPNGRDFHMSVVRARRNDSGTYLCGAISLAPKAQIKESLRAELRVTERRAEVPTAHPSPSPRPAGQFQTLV
molecule,measurement,setting,value
CLQKTPKQC [PD-L1Pep-1],Kd,PD-L1 protein; ref [36],0.373 µM
CCCC[C@H](NC(=O)[C@H](CCC(=O)O)NC(=O)[C@H](Cc1c[nH]c2ccccc12)NC(=O)[C@H](Cc1ccc(O)cc1)NC(C)=O)C(=O)N[C@@H](CCC(=O)O)C(=O)N[C@@H](CC(=O)O)C(=O)N[C@@H](CCCCN)C(=O)N[C@@H](CC(N)=O)C(=O)N[C@H](C(=O)N[C@H](C(=O)N[C@@H](CCC(N)=O)C(N)=O)[C@@H](C)CC)[C@@H](C)CC [Peptide L6] (HELM PEPTIDE1{[ac].Y.W.E.[Nle].E.D.K.N.I.I.Q.[am]}$$$$V2.0),Solubility in water,Solubility in water,no positive effect on the solubility
TFKVEDRYGQGQQILD [Pep4],Kd,PD-1 protein; ref [12],22.7 µM
GNADYNSQRAQLYNQ [Ar5Y_4 W3A],Kd,PD-1 protein; ref [3],8.08 µM
RRWWRR [JD1],Kd,PD-1 protein; ref [19],4.01 µM
CCCC[C@H](NC(=O)[C@H](CCC(=O)O)NC(=O)[C@H](Cc1c[nH]c2ccccc12)NC(=O)[C@H](Cc1ccc(O)cc1)NC(=O)[C@@H](NC(=O)[C@@H](NC(=O)[C@H](CC(C)C)NC(=O)[C@H](C)NC(C)=O)[C@@H](C)CC)C(C)C)C(=O)N[C@@H](CCC(=O)O)C(=O)N[C@@H](CC(=O)O)C(=O)N[C@@H](CCCCN)C(=O)N[C@@H](CC(N)=O)C(=O)N[C@H](C(=O)N[C@H](C(=O)N[C@@H](CCC(N)=O)C(=O)N[C@@H](Cc1ccccc1)C(=O)N[C@H](C(=O)N[C@@H](Cc1c[nH]cn1)C(=O)NCC(=O)N[C@@H](CCC(=O)O)C(=O)N[C@@H](CCC(=O)O)C(=O)N[C@@H](CC(=O)O)C(N)=O)C(C)C)[C@@H](C)CC)[C@@H](C)CC [Peptide L3] (HELM PEPTIDE1{[ac].A.L.I.V.Y.W.E.[Nle].E.D.K.N.I.I.Q.F.V.H.G.E.E.D.[am]}$$$$V2.0),Solubility in water,Solubility in water,no positive effect on the solubility
SGQQRTSADCWEDHGWGSGGSK [PBP],Kd,PD-1 protein; ref [22],17.4 µM
RCMISYpGADYKRI [Peptide P1.2],Kd,PD-1 protein; ref [11],83 µM
KSKAVNRVSQESEM [Pep6],Kd,PD-1 protein; ref [12],66.4 µM
RTMIWYAAAWYKRI [Peptide P2.2],Kd,PD-1 protein; ref [11],55.2 µM
RCMICYGGADYKRI [Peptide P1.1],Kd,PD-1 protein; ref [11],3.66 µM
QYRCNGTSSKGSDQAIITLRV [Pep14],Kd,PD-1 protein; ref [12],10.9 µM
GIDYEERWK [Ar4_1],Kd,PD-1 protein; ref [3],28.3 µM
FNWDYSLEELREKAKYK [Ar5Y_2],Kd,PD-1 protein; ref [3],3.14 µM
CVYRCMISYGGADYKRITC (disulfide (positions not given here)) [ΔDS-II [C110–C128]],Kd,PD-1 protein; ref [8],11.6 µM
RRWQWR [WANG-005],Kd,"PD-1 protein; NB = no binding, ref [6]",5.1 µM
[TMYLerRYpD] [PD-i3],Kd,PD-1 protein; ref [13],102 µM
KRWWR [WANG-003],Kd,"PD-1 protein; NB = no binding, ref [6]",3.3 µM
GDWFKAYYDKVAEG [Peptide 4F-8],Kd,PD-L1 protein; ref [47],412 µM
SHHHRLSRLKEIANSPTQFWRMVARNTLGNGAKQSLNIEHARL [nABPD1],Kd,PD-1 protein; ref [18],0.0119 µM
LDYDGRLSQ [Ar4_2],Kd,PD-1 protein; ref [3],83.9 µM
GNWDYNSQRAQLYNQ [Ar5Y_4],Kd,PD-1 protein; ref [3],1.38 µM
[CKWYRPSEC] [Peptide C8],Kd,PD-1 protein; ref [16],0.64 µM
RRQWFW [JD2],Kd,PD-1 protein; ref [19],4.38 µM
LDYGDKREGQMAE [Ar5M_1],Kd,PD-1 protein; ref [3],21.6 µM
DWFKAFYDKINETYNK [Peptide 4F-32],Kd,PD-L1 protein; ref [47],0.017 µM
GNWDYNSQAAQLYNQ [Ar5Y_4 R9A],Kd,PD-1 protein; ref [3],21.2 µM
WHRSYYTWNLNT [CLP002],Kd,PD-1 protein; ref [10],0.366 µM
RTMIWYGpAWYKRI [Peptide P2.3],Kd,PD-1 protein; ref [11],129 µM
LDYVNRRKMYQ [Ar5M_2],Kd,PD-1 protein; ref [3],3.32 µM
GNWDANSQRAQLYNQ [Ar5Y_4 Y5A],Kd,PD-1 protein; ref [3],20.2 µM
FNWDYSWKSERLKEAYDL [Ar5Y_1],Kd,PD-1 protein; ref [3],3.39 µM
LERHDFGDGRARYEE [Pep10],Kd,PD-1 protein; ref [12],39 µM
TEKDYRHGNIRMKLAYDL [Ar5Y_3],Kd,PD-1 protein; ref [3],3.13 µM
VFELRHSKRKDSRTVY [Pep2],Kd,PD-1 protein; ref [12],127 µM
LETWFGKEILVKT [Pep1],Kd,PD-1 protein; ref [12],140 µM
FRWWR [WANG-004],Kd,"PD-1 protein; NB = no binding, ref [6]",1.6 µM
FSGTVTTAGLLF [P-F4],Kd,PD-1 protein; ref [17],0.119 µM
CRAMISYGGADYK-(N-Me-Arg)-IC [MN1.4],Kd,PD-1 protein; ref [21],2 µM
WHFSYNWRWLPP [CLP003],Kd,PD-1 protein; ref [10],0.117 µM
DWIKANYDETAEYNKEAK [Peptide 4F-30],Kd,PD-L1 protein; ref [47],419 µM
CYRCMISYGGADYKRIC (disulfide (positions not given here)),Kd,PD-1 protein; ref [8],17.5 µM
GTRLKPLIICVQWPGL [PD-L1ip3],Kd,PD-L1 protein; ref [40],33 µM
WDYD [Ar3_1],Kd,PD-1 protein; ref [3],22.3 µM
SGQYASYHCWCWRDPGRSGGSK [TPP-1],Kd,PD-L1 protein; ref [34],0.095 µM
SHFSASYDKYAEKF [Peptide 4F-16],Kd,PD-L1 protein; ref [47],49.4 µM
GNWDYNSQRAQLANQ [Ar5Y_4 Y13A],Kd,PD-1 protein; ref [3],10.2 µM
SRLKEIANSPTQFWRMVARNTLGNGAKQSLNIEHARL [nABP284],Kd,PD-1 protein; ref [18],11.8 µM
CVRARTR [PD-L1Pep-2],Kd,PD-L1 protein; ref [36],0.281 µM
LEYWSSGSTTMYGL [Pep9],Kd,PD-1 protein; ref [12],36.4 µM
GNWAYNSQRAQLYNQ [Ar5Y_4 D4A],Kd,PD-1 protein; ref [3],18.9 µM
TSEVDNGVGKPQKHS [Pep3],Kd,PD-1 protein; ref [12],81.1 µM
RTMIWYpPAWYKRI [Peptide P2.1],Kd,PD-1 protein; ref [11],29.2 µM
HYPFRPHANQAS [CLP001],Kd,PD-1 protein; ref [10],0.534 µM
GQSEHHMRVYSF [OPBP-1],Kd,PD-L1 protein; ref [38],0.667 µM
DYHDPSLPTLRK [CLP004],Kd,PD-1 protein; ref [10],0.544 µM
RTCITYpGADYCRI [Peptide P1.4],Kd,PD-1 protein; ref [11],474 µM
B1,koff,[1],0.00179 s⁻¹
same,kon,[1],10.9 M⁻¹ s⁻¹
B2,koff,[1],0.00071 s⁻¹
same,kon,[1],33.1 M⁻¹ s⁻¹
B3,koff,[1],0.000194 s⁻¹
same,kon,[1],24.7 M⁻¹ s⁻¹
